# Patent US8691755B2, “Pegylated C-peptide” (Cebix AB, priority 2010, dated 2014)
# Like-named read-outs stand apart in the source and are kept apart here.
# How the values were obtained:
# [1] = Repeated-dose GLP toxicology studies with unmodified C-peptide, continuous s.c. infusion; assay type: in vivo, Cynomolgus monkey; details: for No Observed Effect Level: continuous s.c. infusion; for level at time molar: cynomolgus monkey, plasma, sc, read-out: C-peptide Css
# Description: (§1) In the five GLP toxicology studies conducted with non-PEGylated C-peptide for up to 4 weeks in rats and 13 weeks in Cynomolgus monkeys, the C-peptide was continuously infused s.c. via implanted osmotic pumps. The plasma concentration of C-peptide was measured periodically throughout the studies and a steady-state concentration (Css) over the duration of exposure has been determined for each study as shown in Table E6.
# [2] = PK of unmodified C-peptide in beagle dogs, single S.C. dose (first PK study)
# Description: A pharmacokinetic (PK) study was conducted to determine the C-peptide PK profile with unmodified C-peptide in beagle dogs.
# Plasma samples were obtained after centrifugation of the blood (3,000 rpm for 10 minutes) and stored at −80° C. until analysis. […] Results were expressed as C-peptide concentrations. For the PK analysis, the below quantitation level (BQL) was treated as zero and nominal time points were used for all calculations. PK parameters were determined by standard model independent methods based on the individual plasma concentration-time data for each animal using model 200 in WinNonlin Professional 5.2.1 (Pharsight Corp., Mountain View, Calif.).
# [3] = Repeated-dose GLP toxicology studies with unmodified C-peptide, continuous s.c. infusion; assay type: in vivo, Sprague Dawley rat; details: for No Observed Effect Level: continuous s.c. infusion; for level at time molar: Sprague Dawley, rat, plasma, sc, read-out: C-peptide Css
# Description: as §1
# [4] = both, beagle, dog, plasma, sc, 0.5 mg/kg
smiles,measurement,setting,value
CC(C)C[C@H](NC(=O)[C@H](C)NC(=O)[C@H](CC(C)C)NC(=O)[C@@H]1CCCN1C(=O)[C@H](CCC(N)=O)NC(=O)[C@H](CC(C)C)NC(=O)[C@H](CO)NC(=O)CNC(=O)[C@H](C)NC(=O)CNC(=O)[C@@H]1CCCN1C(=O)CNC(=O)CNC(=O)CNC(=O)[C@H](CC(C)C)NC(=O)[C@H](CCC(=O)O)NC(=O)[C@@H](NC(=O)[C@H](CCC(N)=O)NC(=O)CNC(=O)[C@@H](NC(=O)[C@H](CCC(N)=O)NC(=O)[C@H](CC(C)C)NC(=O)[C@H](CC(=O)O)NC(=O)[C@H](CCC(=O)O)NC(=O)[C@H](C)NC(=O)[C@@H](N)CCC(=O)O)C(C)C)C(C)C)C(=O)N[C@@H](CCC(=O)O)C(=O)NCC(=O)N[C@@H](CO)C(=O)N[C@@H](CC(C)C)C(=O)N[C@@H](CCC(N)=O)C(=O)O [unmodified C-peptide],No Observed Effect Level,[1]; 13 weeks,3.6 mg/kg/day
same,No Observed Effect Level,[1]; 14 days,2 mg/kg/day
same,level at time molar,"[1]; 13 weeks at NOEL 3.6 mg/kg/day, mean of days 2, 28, 37/38, 56, 91",40 nM
same,level at time molar,"[1]; 14 days at NOEL 2 mg/kg/day, mean of days 2, 10, 14",84 nM
same,AUC(0-t),[2]; [4],1860 ng·h/mL
same,Cmax,[2]; [4],757 ng/mL
same,circulating levels of C-peptide below quantitation level (BQL),[2]; single S.C. dose 0.5 mg/kg,BQL within half a day
same,tolerability (clinical abnormalities),[2]; single S.C. dose 0.5 mg/kg,well tolerated
same,No Observed Effect Level,[3]; 4 weeks,0.5 mg/kg/day
same,No Observed Effect Level,[3]; 14 days,2 mg/kg/day
same,level at time molar,"[3]; 0.5 mg/kg/day, 4 weeks at NOEL 0.5 mg/kg/day, mean of days 2, 14, 28",4.2 nM
same,level at time molar,"[3]; 2 mg/kg/day, 14 days at NOEL 2 mg/kg/day, mean of days 2, 10, 14",27 nM
